# Test results: ChEMBL document CHEMBL5247677, “N-Aryl Indoles as a Novel Class of Potent NaV1.7 Inhibitors” (ACS Med Chem Lett, 2023)
# The source made the active and inactive calls. No cut-off for these calls is given here.
# Assays:
# [1] = biological target: hERG (KCNH2) (Homo sapiens, UniProt Q12809); experiment: Inhibition of hERG at 100 uM; type: toxicity
# [2] = biological target: Sodium channel protein type 5 subunit alpha/beta-1/beta-2 (Homo sapiens, UniProt Q14524); experiment: Inhibition of human Nav1.5/beta1/2 transfected in HEK293-A cells assessed as inhibition of channel current incubated for 5.5 mins by high-throughput electrophysiology system analysis; type: toxicity, cell-based
# [3] = biological target: Sodium channel protein type 9 subunit alpha/beta-1/beta-2 (Homo sapiens, UniProt Q15858); experiment: Inhibition of human Nav1.7/beta1/2 transfected in HEK293-A cells assessed as inhibition of channel current incubated for 5.5 mins by high-throughput electrophysiology system analysis; type: cell-based
# [4] = biological target: Sodium channel protein type 9 subunit alpha/beta-1/beta-2 (Mus musculus, UniProt Q62205); experiment: Inhibition of mouse Nav1.7/beta1/2 transfected in HEK293-A cells assessed as inhibition of channel current incubated for 5.5 mins by high-throughput electrophysiology system analysis; type: cell-based
# [5] = Unbound fraction in mouse plasma; type: ADME, cell-free
# [6] = biological target: Sodium channel protein type 1 subunit alpha/beta-1/beta-2 (Homo sapiens, UniProt P35498); experiment: Inhibition of human Nav1.1/beta1/2 transfected in HEK293-A cells assessed as inhibition of channel current incubated for 5.5 mins by high-throughput electrophysiology system analysis; type: toxicity, cell-based
# [7] = Selectivity ratio of IC50 for human Nav1.5/beta1/2 transfected in HEK293-A cells to IC50 for human Nav1.7/beta1/2 transfected in HEK293-A cells
# [8] = 1-Octanol/PBS buffer distribution coefficient, log D of the compound at pH 7.4 by HPLC/LC-MS analysis; type: physicochemical
# [9] = Aqueous thermodynamic solubility of the compound at pH 6.8 measured after 4 hrs by HPLC-UV analysis; type: physicochemical; conditions: read-out: Therm_solubility
# [10] = Selectivity ratio of IC50 for human Nav1.1/beta1/2 transfected in HEK293-A cells to IC50 for human Nav1.7/beta1/2 transfected in HEK293-A cells
# [11] = Selectivity ratio of IC50 for mouse Nav1.7/beta1/2 transfected in HEK293-A cells to IC50 for human Nav1.7/beta1/2 transfected in HEK293-A cells; type: cell-based
# [12] = Cmax in ddY mouse at 1 mg/kg, po by LC-MS/MS analysis; type: ADME, organism-based; parameters: dose 1 mg/kg, route po; conditions: in vivo
# [13] = Tmax in ddY mouse at 1 mg/kg, po by LC-MS/MS analysis; type: ADME, organism-based; conditions: in vivo
# [14] = Half life in ddY mouse at 1 mg/kg, po by LC-MS/MS analysis; type: ADME, organism-based; conditions: in vivo
# [15] = tested on: Mus musculus; experiment: Analgesic activity against PSL-induced neuropathic pain mouse model assessed as reversal of thermal hyperalgesia at 1 mg/kg, po measured after 30 mins by plantar test; type: functional; conditions: 0.5 h
# [16] = Bioavailability in ddY mouse at 1 mg/kg, iv by LC-MS/MS analysis; type: ADME, organism-based; conditions: in vivo
# [17] = Volume of distribution at steady state in ddY mouse at 1 mg/kg, iv by LC-MS/MS analysis; type: ADME, organism-based; conditions: in vivo, read-out: Vdss
# [18] = Ratio of fCmax in ddY mouse plasma at 1 mg/kg, po to IC50 for inhibition of mouse Nav1.7/beta1/2 transfected in HEK293-A cells
# [19] = AUC(0 to 24 hrs) in ddY mouse at 1 mg/kg, po by LC-MS/MS analysis; type: ADME, organism-based; parameters: dose 1 mg/kg, route po; conditions: in vivo
# [20] = Total body clearance in ddY mouse at 1 mg/kg, iv by LC-MS/MS analysis; type: ADME, organism-based; conditions: in vivo
# [21] = tested on: Mus musculus; experiment: Analgesic activity against PSL-induced neuropathic pain mouse model assessed as reversal of thermal hyperalgesia at 1 mg/kg, po measured after 180 mins by plantar test; type: functional, organism-based
# [22] = tested on: Mus musculus; experiment: Analgesic activity against PSL-induced neuropathic pain mouse model assessed as reversal of thermal hyperalgesia at 1 mg/kg, po measured after 60 mins by plantar test; type: functional, organism-based
# Chain of Sodium channel protein type 9 subunit alpha/beta-1/beta-2 (Mus musculus, UniProt Q62205) (Q62205 whole entry): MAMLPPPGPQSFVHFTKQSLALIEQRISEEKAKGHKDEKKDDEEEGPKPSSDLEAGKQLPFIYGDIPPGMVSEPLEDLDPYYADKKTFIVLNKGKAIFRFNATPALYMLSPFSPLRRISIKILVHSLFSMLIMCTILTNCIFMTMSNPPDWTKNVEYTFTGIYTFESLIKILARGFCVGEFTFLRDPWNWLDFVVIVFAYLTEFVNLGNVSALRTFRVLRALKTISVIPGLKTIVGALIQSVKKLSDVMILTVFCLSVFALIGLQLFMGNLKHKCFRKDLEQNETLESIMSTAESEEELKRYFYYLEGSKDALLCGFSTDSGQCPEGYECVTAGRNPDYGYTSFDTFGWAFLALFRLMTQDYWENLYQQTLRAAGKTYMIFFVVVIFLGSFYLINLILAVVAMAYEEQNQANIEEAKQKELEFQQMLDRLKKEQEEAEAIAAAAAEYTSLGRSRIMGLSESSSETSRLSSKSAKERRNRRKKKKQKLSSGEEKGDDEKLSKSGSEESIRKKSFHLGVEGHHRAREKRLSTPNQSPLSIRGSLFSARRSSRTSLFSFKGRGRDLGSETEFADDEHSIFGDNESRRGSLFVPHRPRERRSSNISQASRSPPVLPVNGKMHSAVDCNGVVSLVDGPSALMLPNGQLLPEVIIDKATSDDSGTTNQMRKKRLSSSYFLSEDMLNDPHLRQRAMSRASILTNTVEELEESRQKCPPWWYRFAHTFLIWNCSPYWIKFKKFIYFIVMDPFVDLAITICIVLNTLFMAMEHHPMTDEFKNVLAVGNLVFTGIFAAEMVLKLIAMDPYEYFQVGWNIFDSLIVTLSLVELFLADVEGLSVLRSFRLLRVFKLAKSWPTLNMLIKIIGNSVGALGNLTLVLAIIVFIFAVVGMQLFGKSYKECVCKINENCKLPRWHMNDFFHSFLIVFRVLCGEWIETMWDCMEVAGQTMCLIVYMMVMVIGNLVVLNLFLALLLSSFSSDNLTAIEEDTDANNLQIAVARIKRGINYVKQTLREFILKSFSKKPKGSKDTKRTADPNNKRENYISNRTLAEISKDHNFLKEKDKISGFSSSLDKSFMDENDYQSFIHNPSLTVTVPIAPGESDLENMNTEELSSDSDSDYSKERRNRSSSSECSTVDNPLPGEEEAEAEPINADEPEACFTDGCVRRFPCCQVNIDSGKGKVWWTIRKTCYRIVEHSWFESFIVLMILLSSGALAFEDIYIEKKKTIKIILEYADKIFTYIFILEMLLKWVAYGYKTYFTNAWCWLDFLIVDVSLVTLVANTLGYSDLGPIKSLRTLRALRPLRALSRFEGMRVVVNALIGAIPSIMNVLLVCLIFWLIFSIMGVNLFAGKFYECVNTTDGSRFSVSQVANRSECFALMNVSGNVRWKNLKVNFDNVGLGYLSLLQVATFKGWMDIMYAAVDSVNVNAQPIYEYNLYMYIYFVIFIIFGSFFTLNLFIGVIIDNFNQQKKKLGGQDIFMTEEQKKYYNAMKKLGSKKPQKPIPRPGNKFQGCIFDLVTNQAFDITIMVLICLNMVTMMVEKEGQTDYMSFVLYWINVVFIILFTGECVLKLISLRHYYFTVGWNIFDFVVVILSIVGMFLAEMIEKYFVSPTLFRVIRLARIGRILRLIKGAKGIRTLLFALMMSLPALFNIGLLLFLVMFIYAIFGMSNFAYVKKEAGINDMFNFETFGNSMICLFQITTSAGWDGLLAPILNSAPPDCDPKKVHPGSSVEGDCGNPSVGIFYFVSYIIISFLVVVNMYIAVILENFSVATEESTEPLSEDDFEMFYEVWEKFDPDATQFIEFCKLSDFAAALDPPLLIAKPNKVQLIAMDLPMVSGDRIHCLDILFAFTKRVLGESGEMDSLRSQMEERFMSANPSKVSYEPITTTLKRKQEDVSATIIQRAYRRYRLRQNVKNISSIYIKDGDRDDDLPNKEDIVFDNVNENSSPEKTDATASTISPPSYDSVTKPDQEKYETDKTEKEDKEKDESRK
# Chain of Sodium channel protein type 9 subunit alpha/beta-1/beta-2 (Mus musculus, UniProt Q62205) (P97952 whole entry, further chain): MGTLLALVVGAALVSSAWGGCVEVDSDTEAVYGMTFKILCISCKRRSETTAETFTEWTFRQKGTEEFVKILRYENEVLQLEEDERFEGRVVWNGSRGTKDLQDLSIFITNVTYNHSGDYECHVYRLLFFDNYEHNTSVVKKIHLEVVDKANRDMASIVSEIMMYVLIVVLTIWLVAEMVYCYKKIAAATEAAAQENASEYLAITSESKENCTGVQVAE
# Chain of Sodium channel protein type 9 subunit alpha/beta-1/beta-2 (Mus musculus, UniProt Q62205) (Q56A07 whole entry, further chain): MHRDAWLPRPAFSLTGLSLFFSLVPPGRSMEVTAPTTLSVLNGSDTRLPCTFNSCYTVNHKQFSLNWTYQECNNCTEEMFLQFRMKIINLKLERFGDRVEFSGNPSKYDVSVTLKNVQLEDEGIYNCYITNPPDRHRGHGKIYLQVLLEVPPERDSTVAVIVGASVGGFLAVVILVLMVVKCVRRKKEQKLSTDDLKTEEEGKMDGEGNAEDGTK
# Chain of Sodium channel protein type 5 subunit alpha/beta-1/beta-2 (Q14524 whole entry): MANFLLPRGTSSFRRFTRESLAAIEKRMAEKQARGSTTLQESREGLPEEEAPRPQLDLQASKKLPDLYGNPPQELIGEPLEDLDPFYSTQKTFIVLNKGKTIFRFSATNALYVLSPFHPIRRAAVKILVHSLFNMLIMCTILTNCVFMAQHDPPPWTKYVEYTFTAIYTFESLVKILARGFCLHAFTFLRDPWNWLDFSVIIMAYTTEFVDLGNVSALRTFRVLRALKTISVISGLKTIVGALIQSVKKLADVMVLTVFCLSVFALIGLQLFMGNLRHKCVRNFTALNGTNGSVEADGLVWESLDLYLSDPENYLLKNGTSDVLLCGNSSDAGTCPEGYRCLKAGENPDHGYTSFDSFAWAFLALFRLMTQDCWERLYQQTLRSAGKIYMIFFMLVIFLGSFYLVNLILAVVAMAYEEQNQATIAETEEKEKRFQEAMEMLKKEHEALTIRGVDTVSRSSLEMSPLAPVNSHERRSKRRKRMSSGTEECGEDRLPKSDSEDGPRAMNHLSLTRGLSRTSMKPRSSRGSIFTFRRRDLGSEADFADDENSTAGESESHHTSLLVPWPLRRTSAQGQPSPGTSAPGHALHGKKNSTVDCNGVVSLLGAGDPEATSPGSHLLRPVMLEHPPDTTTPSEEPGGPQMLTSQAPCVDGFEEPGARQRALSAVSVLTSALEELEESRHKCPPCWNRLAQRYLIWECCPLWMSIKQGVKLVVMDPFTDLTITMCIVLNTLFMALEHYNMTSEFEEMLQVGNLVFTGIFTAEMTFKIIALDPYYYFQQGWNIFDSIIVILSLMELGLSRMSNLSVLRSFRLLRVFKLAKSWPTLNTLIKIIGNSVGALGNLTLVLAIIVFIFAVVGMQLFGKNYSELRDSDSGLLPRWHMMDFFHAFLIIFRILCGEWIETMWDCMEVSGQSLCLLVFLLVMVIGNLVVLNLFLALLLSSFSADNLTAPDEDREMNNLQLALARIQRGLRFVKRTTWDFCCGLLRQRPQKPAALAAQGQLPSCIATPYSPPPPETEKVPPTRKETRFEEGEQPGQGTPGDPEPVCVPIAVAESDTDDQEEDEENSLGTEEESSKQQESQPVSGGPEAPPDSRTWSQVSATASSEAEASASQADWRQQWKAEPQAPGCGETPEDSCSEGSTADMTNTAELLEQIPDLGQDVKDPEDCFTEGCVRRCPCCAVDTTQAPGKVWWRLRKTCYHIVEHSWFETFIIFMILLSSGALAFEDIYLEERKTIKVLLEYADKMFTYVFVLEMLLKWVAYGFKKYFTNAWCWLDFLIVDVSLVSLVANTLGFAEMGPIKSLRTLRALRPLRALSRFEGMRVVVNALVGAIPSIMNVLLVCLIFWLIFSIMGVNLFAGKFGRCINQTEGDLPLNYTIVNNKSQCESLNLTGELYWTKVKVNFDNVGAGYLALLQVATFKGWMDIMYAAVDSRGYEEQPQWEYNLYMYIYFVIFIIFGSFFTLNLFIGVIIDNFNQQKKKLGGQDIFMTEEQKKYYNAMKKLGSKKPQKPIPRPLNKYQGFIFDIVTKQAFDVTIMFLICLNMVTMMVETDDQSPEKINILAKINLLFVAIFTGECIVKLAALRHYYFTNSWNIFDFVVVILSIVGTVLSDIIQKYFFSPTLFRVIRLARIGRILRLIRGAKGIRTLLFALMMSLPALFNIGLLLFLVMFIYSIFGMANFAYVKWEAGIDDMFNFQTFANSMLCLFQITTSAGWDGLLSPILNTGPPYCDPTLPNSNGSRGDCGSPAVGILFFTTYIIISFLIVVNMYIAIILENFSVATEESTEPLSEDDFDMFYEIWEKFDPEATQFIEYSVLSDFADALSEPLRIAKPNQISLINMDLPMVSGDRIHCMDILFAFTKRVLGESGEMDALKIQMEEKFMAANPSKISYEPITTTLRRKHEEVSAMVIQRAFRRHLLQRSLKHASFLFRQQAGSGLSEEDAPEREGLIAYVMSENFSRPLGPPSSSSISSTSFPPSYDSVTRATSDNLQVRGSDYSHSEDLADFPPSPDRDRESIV
# Chain of Sodium channel protein type 5 subunit alpha/beta-1/beta-2 (O60939 whole entry, further chain): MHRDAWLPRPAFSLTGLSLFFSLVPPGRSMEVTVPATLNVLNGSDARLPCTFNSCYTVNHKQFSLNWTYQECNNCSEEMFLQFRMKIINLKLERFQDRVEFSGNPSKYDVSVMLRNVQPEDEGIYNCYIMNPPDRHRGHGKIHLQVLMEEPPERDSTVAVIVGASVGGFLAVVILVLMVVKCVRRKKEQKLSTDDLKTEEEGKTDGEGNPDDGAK
# Chain of Sodium channel protein type 5 subunit alpha/beta-1/beta-2 (Q07699 whole entry, further chain): as the sequence (P97952 whole entry, further chain) above, with T3R, W18C, D27E, T50N, D130E, L144I, V179I, A191T counted along it
SMILES,inhibition at 100 µM [1],IC50 [2],IC50 [3],IC50 [4],fraction unbound [5],IC50 [6],logD [8],solubility thermodynamic at 4 h [9],other results
Cc1cn(-c2cccnc2)c2ccc(C(=O)NS(C)(=O)=O)cc12,-0.1%,> 300 µM,> 10000 nM,,,,,,
Cn1cc(-c2ccccc2)c2cc(C(=O)NS(C)(=O)=O)ccc21,,,> 10000 nM,> 10000 nM,,,,,
Cc1cn(-c2ccccc2)c2ccc(C(=O)NS(C)(=O)=O)cc12,17.1%,79 µM,330 nM,2700 nM,< 0.002,80 µM,1.1,> 660 µM,Ratio IC50 [7]: 240; Ratio IC50 [10]: 240; Ratio IC50 [11]: 10
Cc1cn(-c2ccc(F)cc2)c2ccc(C(=O)NS(C)(=O)=O)cc12,5.6%,42 µM,190 nM,2800 nM,< 0.002,52 µM,1.1,140 µM,
COc1cccc(-n2cc(C)c3cc(C(=O)NS(C)(=O)=O)ccc32)c1,18.9%,71 µM,190 nM,2100 nM,< 0.002,79 µM,1.2,580 µM,
CS(=O)(=O)NC(=O)c1ccc2[nH]cc(-c3ccccc3)c2c1,,,> 10000 nM,> 10000 nM,,,,,
Cc1cccc(-n2cc(C)c3cc(C(=O)NS(C)(=O)=O)ccc32)c1,51%,,58 nM,1600 nM,,39 µM,1.6,550 µM,
Cc1cn(-c2ccccc2F)c2ccc(C(=O)NS(C)(=O)=O)cc12,,100 µM,5900 nM,12000 nM,,,,,
Cc1cn(-c2cncc(F)c2)c2ccc(C(=O)NS(=O)(=O)C3CC3)cc12,-1.1%,> 300 µM,860 nM,2700 nM,,> 100 µM,,,
Cc1cn(-c2cccc(F)c2)c2ccc(C(=O)NS(=O)(=O)C3CC3)cc12,42.1%,14 µM,32 nM,810 nM,< 0.002,4.8 µM,1.8,440 µM,Cmax [12]: 1700 nM; Tmax [13]: 1 h; half-life [14]: 300 min; Efficacy [15]: 79%; bioavailability [16]: 65%; Vd [17]: 0.57 L/kg; Ratio [18]: <0.0042; AUC(0-t) [19]: 12.1 µM·h; clearance [20]: 2.58 mL/min/kg
Cc1cn(-c2cccnc2)c2ccc(C(=O)NS(=O)(=O)C3CC3)cc12,-8.8%,> 300 µM,1600 nM,> 10000 nM,,> 100 µM,,,
Cc1cn(-c2ccc(Cl)cc2)c2ccc(C(=O)NS(C)(=O)=O)cc12,51.1%,23 µM,260 nM,7900 nM,,> 100 µM,1.8,26 µM,
CS(=O)(=O)NC(=O)c1cc(Cl)c(Oc2cnc(C3CC3)c(Cl)c2)cc1F,,29 µM,52 nM,1700 nM,,22 µM,,,
Cc1cn(-c2cncc(C(F)(F)F)c2)c2cc(F)c(C(=O)NS(=O)(=O)C3CC3)cc12,-2.9%,32 µM,40 nM,15 nM,0.007,1.2 µM,0.6,25 µM,Cmax [12]: 1400 nM; Activity [21]: inactive; Tmax [13]: 6 h; half-life [14]: 810 min; Efficacy [15]: 64%; Ratio [18]: 0.65; Activity [22]: Active; AUC(0-t) [19]: 23.6 µM·h; Ratio IC50 [10]: 30
Cc1cn(-c2ccc(C(F)(F)F)nc2)c2ccc(C(=O)NS(=O)(=O)C3CC3)cc12,21%,210 µM,59 nM,1600 nM,0.014,> 100 µM,1,29 µM,
Cc1cn(-c2cccc(Cl)c2)c2ccc(C(=O)NS(C)(=O)=O)cc12,43.5%,34 µM,87 nM,1700 nM,< 0.002,20 µM,1.8,620 µM,
Cc1cn(-c2cccc(F)c2)c2ccc(C(=O)NS(C)(=O)=O)cc12,13.2%,35 µM,38 nM,900 nM,< 0.002,12 µM,1.2,600 µM,
Cc1cn(-c2cccc(C(F)(F)F)c2)c2ccc(C(=O)NS(C)(=O)=O)cc12,49.8%,27 µM,34 nM,680 nM,0.002,20 µM,1.7,> 820 µM,
Cc1cn(-c2cccc(F)c2)c2cc(F)c(C(=O)NS(C)(=O)=O)cc12,15.6%,31 µM,14 nM,980 nM,< 0.002,> 100 µM,0.8,430 µM,
CS(=O)(=O)NC(=O)c1ccc2c(ccn2-c2ccccc2)c1,,,> 10000 nM,> 10000 nM,,,,,
Cc1cn(-c2cncc(Cl)c2)c2ccc(C(=O)NS(=O)(=O)C3CC3)cc12,34.1%,107 µM,85 nM,460 nM,,9.9 µM,0.8,35 µM,
CS(=O)(=O)NC(=O)c1ccc2c(ccn2Cc2ccccc2)c1,,,> 10000 nM,> 10000 nM,,,,,
